Data: article PMC4177760, “Cytotoxicity of four Aframomum species (A. arundinaceum, A. alboviolaceum, A. kayserianum and A. polyanthum) towards multi-factorial drug resistant cancer cell lines” (BMC Complementary and Alternative Medicine, 2014)
Where two headings read alike, the source gives them in different places.

Experiments:
[1] = system: drug-sensitive CCRF-CEM leukemia cells; test: Resazurin reduction assay, CCRF-CEM; type: cell-based, human
Method: (§1) The cell lines used the present work, their origins and their treatments were previously reported. They include drug-sensitive CCRF-CEM and multidrug-resistant P-glycoprotein over-expressing CEM/ADR5000 leukemia cells, the MDA-MB-231-pcDNA3 breast cancer cells and its resistant subline MDA-MB-231-BCRP clone 23), the HCT116 (p53^+/+) colon cancer cells and its knockout clones HCT116 (p53^-/-), the U87MG glioblastoma cells and its resistant subline U87MG.ΔEGFR, HepG2 hepatocarcinoma cells and AML12 normal hepatocytes. The CCRF-CEM and CEM/ADR5000 leukemia cells were maintained in RPMI 1640 medium (Invitrogen) supplemented with 10% fetal calf serum in a humidified 5% CO2 atmosphere at 37°C. Sensitive and resistant cells were kindly provided by Dr. Axel Sauerbrey (Department of Pediatrics, University of Jena, Jena, Germany). The generation of the resistant subline was previously described. Breast cancer cells, transduced with control vector (MDA-MB-231-pcDNA3) or with cDNA for the breast cancer resistance protein BCRP (MDA-MB-231-BCRP clone 23), were maintained under standard conditions as described above for CCRF-CEM cells. Human wild-type HCT116 (p53^+/+) colon cancer cells as well as knockout clones HCT116 (p53^-/-) derived by homologous recombination were a generous gift from Dr. B. Vogelstein and H. Hermeking (Howard Hughes Medical Institute, Baltimore, MD). Human glioblastoma multiforme U87MG cells (non-transduced) and U87MG cell line transduced with an expression vector harboring an epidermal growth factor receptor (EGFR) gene with a genomic deletion of exons 2 through 7 (U87MG.ΔEGFR) were kindly provided by Dr. W. K. Cavenee (Ludwig Institute for Cancer Research, San Diego, CA). MDA-MB-231-BCRP, U87MG.ΔEGFR and HCT116 (p53^-/-) were maintained in DMEM medium containing 10% FBS (Invitrogen) and 1% penicillin (100 U/mL)-streptomycin (100 μg/mL) (Invitrogen) and were continuously treated with 800 ng/mL and 400 μg/mL geneticin, respectively. Human HepG2 hepatocellular carcinoma cells and normal AML12 heptocytes were obtained from the American Type Culture Collection (ATCC, USA). The above medium without geneticin was used to maintain MDA-MB-231, U87MG, HCT116 (p53^+/+), HepG2 and AML12 cell lines. The cells were passaged twice weekly. All experiments were performed with cells in the logarithmic growth phase.
(§2) The cytotoxicity of the studied samples was performed by resazurin reduction assay as we previously described. Briefly, adherent cells at 1x10^4 cells were allowed to attach overnight and then treated with different studied samples. […] For suspension cells, aliquots of 2 × 10^4 cells per well were seeded in 96-well-plates in a final volume of 200 μL. […] The tested concentrations ranges were 0.16 μg/mL to 40 μg/mL for crude extracts and isolated compounds and 0.08 μg/mL to 20 μg/mL for doxorubicin. After 72 h incubation and a resazurin (Sigma-Aldrich, Schnelldorf, Germany) staining, fluorescence was measured on an Infinite M2000 Pro™ plate reader (Tecan, Crailsheim, Germany) using an excitation wavelength of 544 nm and an emission wavelength of 590 nm. Each assay was done at least two times, with six replicates each. IC50 values represent the sample’s concentrations required to inhibit 50% of cell proliferation and were calculated from a calibration curve by linear regression using Microsoft Excel.

[2] = system: HCT116 (p53-/-) colon cancer cells; test: Resazurin reduction assay, HCT116 p53-/-; type: cell-based, human; details: for IC50: HCT116 p53-/-, 72 h; for degree of resistance: IC50 HCT116 p53-/- divided by IC50 HCT116 p53+/+
Method: as §1, §2

AML12 normal hepatocytes = test: Resazurin reduction assay, AML12; type: cell-based; details: 72 h
Method: as §1, §2

[3] = system: U87MG.ΔEGFR glioblastoma cells; test: Resazurin reduction assay, U87MG.ΔEGFR; type: cell-based, human; details: for IC50: U87MG.ΔEGFR, 72 h; for degree of resistance: IC50 U87MG.ΔEGFR divided by IC50 U87MG
Method: as §1, §2

[4] = system: HCT116 (p53+/+) colon cancer cells; test: Resazurin reduction assay, HCT116 p53+/+; type: cell-based, human
Method: as §1, §2

[5] = system: MDA-MB-231-pcDNA3 breast cancer cells; test: Resazurin reduction assay, MDA-MB-231; type: cell-based; details: MDA-MB-231, 72 h
Method: as §1, §2

U87MG glioblastoma cells = test: Resazurin reduction assay, U87MG; type: cell-based, human; details: 72 h
Method: as §1, §2

[6] = system: MDA-MB-231-BCRP clone 23 breast cancer cells; test: Resazurin reduction assay, MDA-MB-231-BCRP; type: cell-based; details: for degree of resistance: IC50 MDA-MB-231-BCRP divided by IC50 MDA-MB-231; for IC50: 72 h
Method: as §1, §2

[7] = system: multidrug-resistant P-glycoprotein over-expressing CEM/ADR5000 leukemia cells; test: Resazurin reduction assay, CEM/ADR5000; type: cell-based, human; details: for IC50: CEM/ADR5000, 72 h; for degree of resistance: IC50 CEM/ADR5000 divided by IC50 CCRF-CEM
Method: as §1, §2

[8] = system: HepG2 hepatocarcinoma cells; test: Resazurin reduction assay, HepG2; type: cell-based, human; details: HepG2, 72 h
Method: as §1, §2

[9] = system: human promyeloleukemia cell line HL-60; set-up: method as in PMID 14505793, PMID 12832847, PMID 16310358; details: HL-60, via a transient induction of caspase-3/CPP32 activity; cited from earlier work
[10] = system: nine cancer cell lines, sensitive and MDR phenotypes; test: Resazurin reduction assay, all tested cancer cell lines; type: cell-based; details: read-out: IC50 values on all tested cancer cell lines
Method: The cell lines used the present work, their origins and their treatments were previously reported. They include drug-sensitive CCRF-CEM and multidrug-resistant P-glycoprotein over-expressing CEM/ADR5000 leukemia cells, the MDA-MB-231-pcDNA3 breast cancer cells and its resistant subline MDA-MB-231-BCRP clone 23), the HCT116 (p53^+/+) colon cancer cells and its knockout clones HCT116 (p53^-/-), the U87MG glioblastoma cells and its resistant subline U87MG.ΔEGFR, HepG2 hepatocarcinoma cells and AML12 normal hepatocytes. The CCRF-CEM and CEM/ADR5000 leukemia cells were maintained in RPMI 1640 medium (Invitrogen) supplemented with 10% fetal calf serum in a humidified 5% CO2 atmosphere at 37°C. Sensitive and resistant cells were kindly provided by Dr. Axel Sauerbrey (Department of Pediatrics, University of Jena, Jena, Germany). The generation of the resistant subline was previously described. […]
The cytotoxicity of the studied samples was performed by resazurin reduction assay as we previously described. […] After 72 h incubation and a resazurin (Sigma-Aldrich, Schnelldorf, Germany) staining, fluorescence was measured on an Infinite M2000 Pro™ plate reader (Tecan, Crailsheim, Germany) using an excitation wavelength of 544 nm and an emission wavelength of 590 nm. […]

[11] = single concentration 40 μg/mL, 72 h, preliminary test
[12] = Homo sapiens, HCT-116, read-out: IC50
[13] = Homo sapiens, HCT-116, 72 h, read-out: IC50
[14] = Homo sapiens, U-87 MG, read-out: IC50
[15] = Homo sapiens, CCRF-CEM, 72 h; read-out: IC50
[16] = MDA-MB-231-BCRP, read-out: IC50

Compound | Growth percentage (growth proliferation) of CCRF-CEM cells [1, 11] | IC50 [2, 12] | IC50 (AML12 normal hepatocytes; Mus musculus, read-out: IC50) | IC50 ([3]; Homo sapiens, read-out: IC50) | IC50 [4, 13] | IC50 ([5]; Homo sapiens, read-out: IC50) | IC50 (U87MG glioblastoma cells; [14]) | degree of resistance [6] | IC50 ([7]; Homo sapiens, read-out: IC50) | degree of resistance [7] | IC50 ([8]; Homo sapiens, read-out: IC50) | IC50 [1, 15] | further results
1,4-dihydroxybenzene [Compound 7] | more than 50% |  |  |  |  |  |  |  |  |  |  |  | 
CC1(C)CCC[C@@]2(C)[C@H]1CC[C@@]1(CO1)[C@@H]2C/C=C(/C=O)CC=O [Compound 1, aframodial] | more than 50% |  |  |  |  |  |  |  |  |  |  |  | 
C=C1CCC2C(C)(C)CCCC2(C)C1CC=C(C=O)CC=O (stereo not drawn) [Compound 2, 8(17),12-labdadien-15,16-dial] | more than 50% |  |  |  |  |  |  |  |  |  |  |  | 
CC1(C)CCCC2(C)C1CCC1(CO1)C2CC=C1CCOC1=O (stereo not drawn) [Compound 3, galanolactone] | more than 50% |  |  |  |  |  |  |  |  |  |  |  | 
CC1(C)CCCC2(C)C1CCC1(C=O)C(O)CC(C=O)=CCC21 (stereo not drawn) [Compound 4, galanal A] | 47.78% | > 40 µg/mL | > 40 µg/mL | > 40 µg/mL | > 40 µg/mL | > 40 µg/mL | > 40 µg/mL | < 0.70 | > 40 µg/mL | > 2.31 | > 40 µg/mL |  | IC50 ([1]; Homo sapiens, CCRF-CEM, 72 h, CCRF-CEM, read-out: IC50): 17.3 ± 1.96 µg/mL; IC50 ([6]; MDA-MB-231/BCRP, MDA-MB-231-BCRP, read-out: IC50): 28 ± 2.39 µg/mL
CC1(C)CCCC2(C)C1CCC1(C=O)C(O)CC(C=O)=CCC21 (stereo not drawn) [Compound 5, galanal B] | 49.81% |  |  |  |  |  |  |  |  | > 2.02 |  |  | IC50 [2]: - ((-): >40 μg/mL); IC50 (AML12 normal hepatocytes): - ((-): >40 μg/mL); IC50 ([1]; CCRF-CEM, 72 h): 19.81 ± 2.01 µg/mL; IC50 [3]: - ((-): >40 μg/mL); IC50 ([4]; 72 h): - ((-): >40 μg/mL); IC50 [5]: - ((-): >40 μg/mL); IC50 (U87MG glioblastoma cells): - ((-): >40 μg/mL); IC50 ([6]; MDA-MB-231-BCRP): - ((-): >40 μg/mL); IC50 [7]: - ((-): >40 μg/mL); IC50 [8]: - ((-): >40 μg/mL)
CC1=CC(O)C(C(C)C)CC1O (stereo not drawn) [Compound 6, 1-p-menthene-3,6-diol] | more than 50% |  |  |  |  |  |  |  |  |  |  |  | 
O=C1C[C@@H](c2ccc(O)cc2)Oc2cc(O)cc(O)c21 [Compound 8, naringenin] | 38.49% | 13.9 ± 0.94 µg/mL | > 40 µg/mL | 18 ± 1.34 µg/mL | 13.7 ± 1.11 µg/mL | 9.51 ± 1.03 µg/mL | 29.8 ± 1.88 µg/mL | 1.91 | 7.86 ± 0.74 µg/mL | 0.64 | 23.5 ± 1.95 µg/mL | 12.2 ± 1.87 µg/mL | degree of resistance [2]: 1.02; apoptosis induction [9]: induced apoptosis; degree of resistance [3]: 0.60; IC50 [10]: < 40 µg/mL; IC50 [6, 16]: 18.1 ± 2.01 µg/mL
COc1ccc(-c2oc3cc(OC)cc(O)c3c(=O)c2OC)cc1 [Compound 9, kaempferol-3,7,4’-trimethylether] | 39.58% | 36.7 ± 2.31 µg/mL | > 40 µg/mL | > 40 µg/mL | > 40 µg/mL | > 40 µg/mL | > 40 µg/mL | < 0.83 | 18.2 ± 1.18 µg/mL | 0.99 | > 40 µg/mL | 18.4 ± 2.04 µg/mL | IC50 ([6]; MDA-MB-231/BCRP): 33.1 ± 2.64 µg/mL
COc1cccc2c1C(=O)c1c(O)c3c(c(O)c1C2=O)C[C@@](O)(C(=O)CO)C[C@@H]3O[C@H]1C[C@H](N)[C@H](O)[C@H](C)O1 [Doxorubucin, Doxorubicin, reference compound] |  | 4.06 ± 0.04 µg/mL | > 40 µg/mL | 6.11 ± 0.04 µg/mL | 1.43 ± 0.02 µg/mL | 1.1 ± 0.01 µg/mL | 1.06 ± 0.03 µg/mL | 7.11 | > 20 µg/mL | 1772 | 1.41 ± 0.12 µg/mL | 0.11 ± 0.01 µg/mL | degree of resistance [2]: 2.84; degree of resistance [3]: 5.76; IC50 ([10]; all nine tested cancer cell lines): < 40 µg/mL; IC50 [6, 16]: 7.83 ± 0.01 µg/mL
